Measurements taken from patent US11311522B1 (Cavion, Inc., priority 2018, dated 2022).

Experiment: PN002/Part II: safety and tolerability
Format: in vivo
Excerpt: Clinical safety was monitored throughout the study by adverse events, clinical laboratory tests, vital signs, ECGs, and ECG telemetry.
The subject was not on telemetry at the time.

CC(C)c1ccc(CC(=O)N[C@H](C)c2ccc(OCC(F)(F)F)cn2)cc1 [CX-8998]
0 n %: Abnormal sensation of limbs (12 mg/d) | Anger (12 mg/d) | Backache (12 mg/d) | Clamminess (12 mg/d) | Daydreaming (12 mg/d) | Disorientation (12 mg/d) | Drowsiness (12 mg/d) | Dyspepsia (12 mg/d) | Euphoric mood (12 mg/d) | Feeling drunk (12 mg/d) | Floating feeling (12 mg/d) | Fuzzy head (12 mg/d) | Hallucination (12 mg/d) | Hypoaesthesia mouth (12 mg/d) | Increased state of alertness (12 mg/d) | Lethargy (12 mg/d) | Lightheadedness (12 mg/d) | Mood change (12 mg/d) | Nausea (12 mg/d) | Paraesthesia generalized (12 mg/d) | Paranoia (12 mg/d) | Respiratory, Thoracic and Mediastinal Disorders (12 mg/d) | Sedation (12 mg/d) | Sensation of heaviness (12 mg/d) | Sensation of pressure (12 mg/d) | Sleep disturbance (12 mg/d) | Somnolence (12 mg/d) | Sore throat (12 mg/d) | Spaced out (12 mg/d) | Syncope (12 mg/d) | Taste change (12 mg/d) | Temporal disorientation (12 mg/d) | Tingling (12 mg/d) | Visual disturbance (12 mg/d) | Vivid dreams (12 mg/d) | Vomiting (12 mg/d) | Application site erythema (18 mg/d) | Application site pruritus (18 mg/d) | Dyspepsia (18 mg/d) | Feeling of relaxation (18 mg/d) | Floating feeling (18 mg/d) | Hyperactivity (18 mg/d) | Increased state of alertness (18 mg/d) | Intermittent headache (18 mg/d) | Mood altered (18 mg/d) | Mood change (18 mg/d) | Sedation (18 mg/d) | Sensation of pressure (18 mg/d) | Somnolence (18 mg/d) | Temporal disorientation (18 mg/d) | Tingling (18 mg/d) | Vivid dreams (18 mg/d)
5 (16.7) N (%): Nausea (any dose) | Respiratory, Thoracic and Mediastinal Disorders (any dose)
4 (66.7) n %: Gastrointestinal Disorders (18 mg/d) | Headache (18 mg/d) | Musculoskeletal and Connective Tissue Disorders (18 mg/d)
4 (13.3) N (%): Application site erythema (any dose) | Euphoric mood (any dose) | Visual disturbance (any dose) | Vivid dreams (any dose)
2 (33.3) n %: Feeling of relaxation (12 mg/d) | Nervous System Disorders (12 mg/d) | Psychiatric Disorders (12 mg/d) | Abnormal physical sensation (18 mg/d) | Abnormal sensation of limbs (18 mg/d) | Anger (18 mg/d) | Backache (18 mg/d) | Daydreaming (18 mg/d) | Dizziness (18 mg/d) | Drowsiness (18 mg/d) | Eye Disorders (18 mg/d) | Feeling drunk (18 mg/d) | Hallucination (18 mg/d) | Hypoaesthesia mouth (18 mg/d) | Nausea (18 mg/d) | Paranoia (18 mg/d) | Spaced out (18 mg/d) | Tiredness (18 mg/d) | Visual disturbance (18 mg/d)
5 (83.3) n %: Tiredness (12 mg/d)
14 (46.7) N (%): Headache (any dose)
9 (30.0) N (%): Lightheadedness (any dose)
7 (23.3) N (%): Feeling of relaxation (any dose)
1 (16.7) n %: Application site erythema (12 mg/d) | Application site pruritus (12 mg/d) | Dizziness (12 mg/d) | Eye Disorders (12 mg/d) | Gastrointestinal Disorders (12 mg/d) | Headache (12 mg/d) | Heaviness of head (12 mg/d) | Hyperactivity (12 mg/d) | Intermittent headache (12 mg/d) | Mood altered (12 mg/d) | Musculoskeletal and Connective Tissue Disorders (12 mg/d) | Skin and Subcutaneous Tissue Disorders (12 mg/d) | Sleep difficult (12 mg/d) | Clamminess (18 mg/d) | Disorientation (18 mg/d) | Euphoric mood (18 mg/d) | Fuzzy head (18 mg/d) | Heaviness of head (18 mg/d) | Lethargy (18 mg/d) | Lightheadedness (18 mg/d) | Paraesthesia generalized (18 mg/d) | Respiratory, Thoracic and Mediastinal Disorders (18 mg/d) | Sensation of heaviness (18 mg/d) | Sleep difficult (18 mg/d) | Sleep disturbance (18 mg/d) | Sore throat (18 mg/d) | Syncope (18 mg/d) | Taste change (18 mg/d) | Vomiting (18 mg/d)
27 (90.0) N (%): At least 1 adverse event (any dose)
20 (66.7) N (%): Nervous System Disorders (any dose)
13 (43.3) N (%): Tiredness (any dose)
15 (50.0) N (%): Psychiatric Disorders (any dose)
5 (15.7) N (%): Drowsiness (any dose)
2 (6.7) N (%): Abnormal physical sensation (any dose) | Abnormal sensation of limbs (any dose) | Anger (any dose) | Application site pruritus (any dose) | Backache (any dose) | Clamminess (any dose) | Disorientation (any dose) | Dyspepsia (any dose) | Feeling drunk (any dose) | Hallucination (any dose) | Heaviness of head (any dose) | Hypoaesthesia mouth (any dose) | Increased state of alertness (any dose) | Mood altered (any dose) | Mood change (any dose) | Paraesthesia generalized (any dose) | Paranoia (any dose) | Sedation (any dose) | Sensation of heaviness (any dose) | Sensation of pressure (any dose) | Sleep difficult (any dose) | Sleep disturbance (any dose) | Syncope (any dose) | Taste change (any dose) | Temporal disorientation (any dose) | Tingling (any dose) | Nasal obstruction (male, human, in vivo, 7 days)
4 of the 6 subjects: Subjects discontinuing treatment because of adverse events (18 mg once daily)
3 (10.0) N (%): Daydreaming (any dose) | Dizziness (any dose) | Floating feeling (any dose) | Fuzzy head (any dose) | Hyperactivity (any dose) | Intermittent headache (any dose) | Lethargy (any dose) | Somnolence (any dose) | Sore throat (any dose) | Spaced out (any dose) | Vomiting (any dose)
8 (26.7) N (%): Musculoskeletal and Connective Tissue Disorders (any dose)
6 (20.0) N (%): Eye Disorders (any dose) | Skin and Subcutaneous Tissue Disorders (any dose)
3 (50.0) n %: Skin and Subcutaneous Tissue Disorders (18 mg/d)
6 (100) n %: At least 1 adverse event (12 mg/d) | At least 1 adverse event (18 mg/d) | Nervous System Disorders (18 mg/d) | Psychiatric Disorders (18 mg/d)
11 (36.7) N (%): Gastrointestinal Disorders (any dose)
